Assay in all cases: NCI anticancer screen, dose series, 48 h
Experiment [1] concerns DMS-114.
Experiment [2] relates to DMS-273.
Experiment [3] deals with M19-MEL.
Experiment [4] relates to SNB-78.
Experiment [5] deals with DLD-1.
Experiment [6] relates to HOP-18.
Experiment [7] concerns XF498.
Experiment [8] deals with LXFL 529.
Experiment [9] concerns RXF 631.

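48-hour exposure; five concentrations; linearly interpolated endpoints. At the GI50, growth is halved.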 Activity calls are given as the source filed them. No stated cut-off is given here; in the data, active = GI50 up to about 1.1 µM and inactive = higher.

In the case of `C=CCCCC(C#N)(c1ccccc1)N1CCCC1` (stereo not drawn), the GI50 in experiment [1], in experiment [2], in experiment [3] and in experiment [4] was > 100 µM (inactive) throughout.
As to `Cc1cccc(C2=C/C(=C(\SS/C(C(=O)c3ccc(OCC(=O)O)c(Cl)c3Cl)=C3\C=C(c4cccc(C)c4)SS3)C(=O)c3ccc(OCC(=O)O)c(Cl)c3Cl)SS2)c1`, the GI50 is 27.4 µM (inactive) in [5]; 5.42 µM (inactive) in experiment [1]; 31.3 µM (inactive) in experiment [2]; 12.8 µM (inactive) in experiment [6]; 19.1 µM (inactive) in [3]; 15.6 µM (inactive) in experiment [4]. The GI50 in experiment [7] is 7.98 µM (inactive).
For the compound `O=C(Nc1cccc(O)c1)C(=O)C(C(=O)c1ccc(Cl)c(Cl)c1)C1OC(=O)c2ccccc21` (stereo not drawn), the GI50 is 12.1 µM (inactive) in [1]; 10.1 µM (inactive) in experiment [2]; 25.5 µM (inactive) in experiment [6]; 12.2 µM (inactive) in experiment [8]; 12.4 µM (inactive) in experiment [3]; 7.08 µM (inactive) in [4]. Moreover, the GI50 in [7] was 10.9 µM (inactive).
For the compound `N#CC(C#N)=C1NC(=O)CC(=O)N1`, the GI50 in experiment [5], in experiment [1], in experiment [2], in experiment [8], in [3] and in [4] was > 100 µM (inactive) throughout. The GI50 in [7] is > 100 µM (inactive).
On to `Oc1cccc2c1NC1=C(CCC/C1=C\c1ccccc1)C2`, for which the GI50 in [1] is 67.8 µM (inactive); in experiment [2] it was 66.7 µM (inactive); in [8], 89.5 µM (inactive); in experiment [3] it was 55.8 µM (inactive); in experiment [7], 57.1 µM (inactive).
As to `Cc1ccc(NC(=O)C2C3CCC(O3)C2C(=O)O)cc1` (stereo not drawn), the GI50 in experiment [5] is > 54.1 µM (inactive); in experiment [1], 33.3 µM (inactive); in [2] it was > 57.8 µM (inactive); in experiment [6], > 86.3 µM (inactive); in [8], > 46.2 µM (inactive); in experiment [3], > 61.2 µM (inactive). In addition, the results for the GI50 in experiment [9], in experiment [4] and in experiment [7] were 53.7 µM (inactive), > 86.7 µM (inactive) and 22.6 µM (inactive), respectively.
Take `COc1ccc(/C=C/C(C(=O)O)C(=O)O)cc1`: the GI50 in experiment [5] was > 100 µM (inactive); in [1], > 100 µM (inactive); in experiment [2], > 100 µM (inactive); in experiment [8], 36.4 µM (inactive); in experiment [3] it was 61.8 µM (inactive); in experiment [4], 48.1 µM (inactive). In addition, the GI50 in experiment [7] was > 100 µM (inactive).
On to `CN1CCN(CCn2c3c4ccccc4ccc3c3oc(=O)c4ccccc4c32)CC1`, for which the GI50 was 2.28 µM (inactive) in experiment [5]; 1.95 µM (inactive) in [1]; 12.6 µM (inactive) in experiment [6]; 4.06 µM (inactive) in experiment [8]; 10.8 µM (inactive) in experiment [3]; 5.19 µM (inactive) in [9]. For the same compound, the GI50 in [4] is 11.4 µM (inactive).
On to `C[C@@H](CO)OCOCc1ccccc1`, for which the GI50 in experiment [5], in experiment [1], in experiment [2], in experiment [8], in [3] and in experiment [4] was > 100 µM (inactive) in each case. Moreover, the GI50 in experiment [7] was > 100 µM (inactive).
For the compound `NNC(=O)N/N=C1\CNC(=O)C(=O)C1c1nc2ccccc2s1` (stereo not drawn), the GI50 in experiment [5], in [1], in experiment [2], in [8], in experiment [3] and in experiment [4] was > 100 µM (inactive) each time. Further, the GI50 in experiment [7] was > 100 µM (inactive).
With `Cc1ccc(NC(=O)CC(=O)n2nc(-c3ccccc3)c(/N=N/c3ccc(Cl)cc3)c2-c2ccccc2)cc1`, the GI50 in [5] is 15.3 µM (inactive); in experiment [1], 39.6 µM (inactive); in [2] it was 83.8 µM (inactive); in experiment [6], 39 µM (inactive); in [8] it was 64.7 µM (inactive); in [3], 22 µM (inactive). Besides, the GI50 in [9] and in experiment [4] was > 100 µM (inactive) in each case.
In the case of `Cc1cccc(C)c1NC(=O)CCCC(=O)C(C#N)c1ccc(Cl)cc1` (stereo not drawn), the GI50 in experiment [5], in experiment [1], in experiment [2], in experiment [6], in experiment [8] and in [3] was > 100 µM (inactive) throughout. Further, the GI50 in experiment [4] was > 100 µM (inactive).
Take `Cc1ccc(S(=O)(=O)OC(C=O)C(O)C(O)COC(c2ccccc2)(c2ccccc2)c2ccccc2)cc1` (stereo not drawn): the GI50 in experiment [1] is 17.6 µM (inactive); in experiment [2] it was 21.9 µM (inactive); in experiment [8] it was 12.8 µM (inactive); in [3], 13.1 µM (inactive); in experiment [9], 0.46 µM (active); in experiment [7], 15.8 µM (inactive).
For `C[Si]12OCCCN(CCO1)CCO2`, the GI50 in experiment [5], in [1], in [2], in experiment [8], in experiment [3] and in [4] was > 100 µM (inactive) each time.
With `N#Cc1ccc(Nc2cnc3ccc(N)cc3n2)cc1`, the GI50 in [5], in [1], in experiment [2], in [8], in experiment [3] and in [4] was > 100 µM (inactive) each time. Also, the GI50 in experiment [7] is > 100 µM (inactive).
`O=C(Nc1cccc(Cl)c1)c1cc2cc(/N=N/c3ccc(Br)cc3)ccc2oc1=O`: the GI50 in [5] is 40 µM (inactive); in experiment [1], 18.4 µM (inactive); in experiment [2], 21.3 µM (inactive); in experiment [6] it was 63.2 µM (inactive); in [8] it was 14.1 µM (inactive); in experiment [3], > 10 µM (inactive). Besides, the GI50 in experiment [9] was 68.1 µM (inactive); in experiment [4] it was 52.8 µM (inactive); in [7], 46.8 µM (inactive).
As to `COc1c(OC)c(N)c2cc(C)c(=O)c(C)cc2c1N`, the GI50 in experiment [5] was 55.7 µM (inactive); in experiment [1] it was 50.9 µM (inactive); in experiment [2] it was > 100 µM (inactive); in experiment [6], > 100 µM (inactive); in experiment [8] it was 64.9 µM (inactive); in experiment [3] it was > 100 µM (inactive). The GI50 in experiment [4] and in experiment [7] was > 100 µM (inactive) throughout.
On to `OC1CN(OC/C=C/c2ccccc2)CC(O)C1O` (stereo not drawn), for which the GI50 in experiment [5] was 87.3 µM (inactive); in experiment [1] it was > 100 µM (inactive); in [2], > 100 µM (inactive); in experiment [6] it was > 100 µM (inactive); in experiment [8], 60.1 µM (inactive); in [3] it was > 100 µM (inactive). The GI50 in experiment [4] and in experiment [7] was > 100 µM (inactive) throughout.
As for `NC(CCSCCF)C(=O)O` (stereo not drawn), the GI50 in experiment [1], in experiment [2], in experiment [6], in experiment [8], in experiment [3] and in experiment [4] was > 100 µM (inactive) throughout.
As to `CCOC(=O)/C(=C/c1ccccc1Br)P(=O)(OCC)OCC`, the GI50 in [5] is 1.29 µM (inactive); in [2] it was 1.26 µM (inactive); in experiment [6] it was 3.34 µM (inactive); in experiment [8], 1.29 µM (inactive); in experiment [3], 1.55 µM (inactive); in [9] it was 2.5 µM (inactive). Also, the GI50 in experiment [7] was 1.93 µM (inactive).
As for `COc1nc(OC)nc(Sc2ccc(Sc3ccc(Sc4nc(OC)nc(OC)n4)cc3)cc2)n1`, the GI50 was > 100 µM (inactive) in experiment [5]; 24.1 µM (inactive) in experiment [1]; > 100 µM (inactive) in experiment [2]; > 100 µM (inactive) in [6]; > 100 µM (inactive) in experiment [8]; > 100 µM (inactive) in experiment [3]. For the same compound, the GI50 in [4] and in experiment [7] was > 100 µM (inactive) in each case.
Regarding `COc1c(OC2OC(CO)C(O)C(O)C2O)cc2c(c1OC)-c1ccc(OC)c(=O)cc1C(NC(C)=O)CC2` (stereo not drawn), the GI50 in [5] was > 100 µM (inactive); in experiment [1], 35.7 µM (inactive); in [2], > 100 µM (inactive); in experiment [6] it was > 100 µM (inactive); in experiment [8], 86.1 µM (inactive); in experiment [3], > 91.2 µM (inactive). Moreover, the GI50 in [9] was > 100 µM (inactive); in experiment [4], > 100 µM (inactive); in [7], 83.6 µM (inactive).
Take `CC(=O)O[C@@H]1CC[C@@]2(C)C(=O)C34C[C@@]5(C)C([C@@H](C)CCCC(C)C)CCC5(C)[C@](O)(O3)C(=O)[C@H]4C2C1(C)C` (stereo partly drawn): the GI50 in experiment [5] was 18 µM (inactive); in experiment [1], 17.4 µM (inactive); in [2], 13.4 µM (inactive); in experiment [6], 15.8 µM (inactive); in experiment [8], 16.7 µM (inactive); in experiment [3] it was 13.8 µM (inactive). The GI50 in experiment [9] is 12.6 µM (inactive); in experiment [4] it was 20.8 µM (inactive).
In the case of `C=C1C(=O)OC2C(C)C3C=CC(=O)[C@@]3(C)C(OC(=O)/C(C)=C/C)C1[C@@H]2OC(C)=O` (stereo partly drawn), the GI50 in experiment [5] was 0.5 µM (active); in experiment [1], 0.861 µM (active); in experiment [2] it was 0.541 µM (active); in experiment [6], 1.79 µM (inactive); in [8] it was 0.359 µM (active); in [3] it was 0.547 µM (active). Also, the GI50 was 0.396 µM (active) in experiment [4] and 1.25 µM (inactive) in [7].
In the case of `CCCCCC(=O)N[C@H]1CCc2cc(O)c(O)c(O)c2-c2ccc(SC)c(=O)cc21`, the GI50 is 19.6 µM (inactive) in [5]; 15.5 µM (inactive) in experiment [1]; 32.5 µM (inactive) in experiment [2]; 21.5 µM (inactive) in experiment [8]; 19.9 µM (inactive) in experiment [3]; 65.2 µM (inactive) in [4].

Values taken from ChEMBL document CHEMBL1201862, “PubChem BioAssay data set” (2004).
